# Laboratory results: patent US10766902B2, “Wee-1 inhibiting pyrazolopyrimidinone compounds” (ALMAC DISCOVERY LIMITED, priority 2016, dated 2020)
# What was measured:
# EPHA2 = EPHA2 (Homo sapiens (Human), UniProt P29317); test: SelectScreen Kinase Profiling: EPHA2; assay type: biochemical; conditions: tested at 300-350 nM
# Description: (§1) Table 4 below highlights the selectivity of a representative compound of the invention, Example 5, against a panel of 50 kinases (assessed using the Invitrogen SelectScreen® Kinase Profiling Service).
# EGFR (ErbB1) = EGFR (ErbB1) (Homo sapiens (Human), UniProt P00533); test: SelectScreen Kinase Profiling: EGFR (ErbB1); assay type: biochemical; conditions: tested at 300-350 nM
# Description: as §1
# DYRK3 = DYRK3 (Homo sapiens (Human), UniProt O43781); test: SelectScreen Kinase Profiling: DYRK3; assay type: biochemical; conditions: tested at 300-350 nM
# Description: as §1
# CSNK1G2 (CK1 gamma 2) = CSNK1G2 (CK1 gamma 2) (Homo sapiens (Human), UniProt P78368); test: SelectScreen Kinase Profiling: CSNK1G2 (CK1 gamma 2); assay type: biochemical; conditions: tested at 300-350 nM
# Description: as §1
# PRKACA (PKA) = PRKACA (PKA) (Homo sapiens (Human), UniProt P17612); test: SelectScreen Kinase Profiling: PRKACA (PKA); assay type: biochemical; conditions: tested at 300-350 nM
# Description: as §1
# RPS6KB1 (p70S6K) = RPS6KB1 (p70S6K) (Homo sapiens (Human), UniProt P23443); test: SelectScreen Kinase Profiling: RPS6KB1 (p70S6K); assay type: biochemical; conditions: tested at 300-350 nM
# Description: as §1
# PIM1 = PIM1 (Homo sapiens (Human), UniProt P11309); test: SelectScreen Kinase Profiling: PIM1; assay type: biochemical; conditions: tested at 300-350 nM
# Description: as §1
# CDK1/cyclin B = CDK1/cyclin B (Homo sapiens (Human), UniProt P06493); test: SelectScreen Kinase Profiling: CDK1/cyclin B; assay type: biochemical; conditions: tested at 300-350 nM
# Description: as §1
# ROCK1 = ROCK1 (Homo sapiens (Human), UniProt Q13464); test: SelectScreen Kinase Profiling: ROCK1; assay type: biochemical; conditions: tested at 300-350 nM
# Description: as §1
# NTRK1 (TRKA) = NTRK1 (TRKA) (Homo sapiens (Human), UniProt P04629); test: SelectScreen Kinase Profiling: NTRK1 (TRKA); assay type: biochemical; conditions: tested at 300-350 nM
# Description: as §1
# MARK2 = MARK2 (Homo sapiens (Human), UniProt Q7KZI7); test: SelectScreen Kinase Profiling: MARK2; assay type: biochemical; conditions: tested at 300-350 nM
# Description: as §1
# MAPK1 (ERK2) = MAPK1 (ERK2) (Homo sapiens (Human), UniProt P28482); test: SelectScreen Kinase Profiling: MAPK1 (ERK2); assay type: biochemical; conditions: tested at 300-350 nM
# Description: as §1
# JAK3 = JAK3 (Homo sapiens (Human), UniProt P52333); test: SelectScreen Kinase Profiling: JAK3; assay type: biochemical; conditions: tested at 300-350 nM
# Description: as §1
# A427 cells = test: Cell viability (CellTiter-Glo), A427; assay type: cell-based; conditions: Homo sapiens, A-427; cell viability after 72 hours
# Description: (§2) All cell lines (HT29, A427, A498, SKLU-1) were obtained from the American Type Culture Collection (ATCC), maintained in the recommended media supplemented with 10% (v/v) FBS, 1% (v/v) Penicillin/streptomycin and kept at 37° C. in a humidified atmosphere with 5% CO2. Cells were seeded in 96 wp format typically at a seeding density of 3500-5000 cells/well and treated after 24 hours with increasing concentration of compound from 0 to 100 μM in ½ log unit increments. Cell viability was assessed after 72 hours (HT29, A427) or after 6 days (SKLU-1, A498) by CellTiter-Glo® as recommended by the manufacturer's instructions (Promega). Analysis and EC50 values were derived using GraphPadPrism.
# BTK = BTK (Homo sapiens (Human), UniProt Q06187); test: SelectScreen Kinase Profiling: BTK; assay type: biochemical; conditions: tested at 300-350 nM
# Description: as §1
# CHEK1 (CHK1) = CHEK1 (CHK1) (Homo sapiens (Human), UniProt O14757); test: SelectScreen Kinase Profiling: CHEK1 (CHK1); assay type: biochemical; conditions: tested at 300-350 nM
# Description: as §1
# SYK = SYK (Homo sapiens (Human), UniProt P43405); test: SelectScreen Kinase Profiling: SYK; assay type: biochemical; conditions: tested at 300-350 nM
# Description: as §1
# AMPK A1/B1/G1 = AMPK A1/B1/G1 (Homo sapiens (Human), UniProt Q13131); test: SelectScreen Kinase Profiling: AMPK A1/B1/G1; assay type: biochemical; conditions: tested at 300-350 nM
# Description: as §1
# RPS6KA3 (RSK2) = RPS6KA3 (RSK2) (Homo sapiens (Human), UniProt P51812); test: SelectScreen Kinase Profiling: RPS6KA3 (RSK2); assay type: biochemical; conditions: tested at 300-350 nM
# Description: as §1
# GSK3B (GSK3 beta) = GSK3B (GSK3 beta) (Homo sapiens (Human), UniProt P49841); test: SelectScreen Kinase Profiling: GSK3B (GSK3 beta); assay type: biochemical; conditions: tested at 300-350 nM
# Description: as §1
# INSR = INSR (Homo sapiens (Human), UniProt P06213); test: SelectScreen Kinase Profiling: INSR; assay type: biochemical; conditions: tested at 300-350 nM
# Description: as §1
# TEK (Tie2) = TEK (Tie2) (Homo sapiens (Human), UniProt Q02763); test: SelectScreen Kinase Profiling: TEK (Tie2); assay type: biochemical; conditions: tested at 300-350 nM
# Description: as §1
# MAPKAPK2 = MAPKAPK2 (Homo sapiens (Human), UniProt P49137); test: SelectScreen Kinase Profiling: MAPKAPK2; assay type: biochemical; conditions: tested at 300-350 nM
# Description: as §1
# ERBB2 (HER2) = ERBB2 (HER2) (Homo sapiens (Human), UniProt P04626); test: SelectScreen Kinase Profiling: ERBB2 (HER2); assay type: biochemical; conditions: tested at 300-350 nM
# Description: as §1
# PAK4 = PAK4 (Homo sapiens (Human), UniProt O96013); test: SelectScreen Kinase Profiling: PAK4; assay type: biochemical; conditions: tested at 300-350 nM
# Description: as §1
# SK-LU-1 cells = test: Cell viability (CellTiter-Glo), SK-LU-1; assay type: cell-based; conditions: Homo sapiens, SK-LU-1, 144 h; cell viability after 6 days
# Description: as §2
# MAP4K4 (HGK) = MAP4K4 (HGK) (Homo sapiens (Human), UniProt O95819); test: SelectScreen Kinase Profiling: MAP4K4 (HGK); assay type: biochemical; conditions: tested at 300-350 nM
# Description: as §1
# MET (cMet) = MET (cMet) (Homo sapiens (Human), UniProt P08581); test: SelectScreen Kinase Profiling: MET (cMet); assay type: biochemical; conditions: tested at 300-350 nM
# Description: as §1
# PRKCB1 (PKC beta I) = PRKCB1 (PKC beta I) (Homo sapiens (Human), UniProt P05771); test: SelectScreen Kinase Profiling: PRKCB1 (PKC beta I); assay type: biochemical; conditions: tested at 300-350 nM
# Description: as §1
# MAP2K1 (MEK1) = MAP2K1 (MEK1) (Homo sapiens (Human), UniProt Q02750); test: SelectScreen Kinase Profiling: MAP2K1 (MEK1); assay type: biochemical; conditions: tested at 300-350 nM
# Description: as §1
# PAK4, sequence (O96013 whole entry): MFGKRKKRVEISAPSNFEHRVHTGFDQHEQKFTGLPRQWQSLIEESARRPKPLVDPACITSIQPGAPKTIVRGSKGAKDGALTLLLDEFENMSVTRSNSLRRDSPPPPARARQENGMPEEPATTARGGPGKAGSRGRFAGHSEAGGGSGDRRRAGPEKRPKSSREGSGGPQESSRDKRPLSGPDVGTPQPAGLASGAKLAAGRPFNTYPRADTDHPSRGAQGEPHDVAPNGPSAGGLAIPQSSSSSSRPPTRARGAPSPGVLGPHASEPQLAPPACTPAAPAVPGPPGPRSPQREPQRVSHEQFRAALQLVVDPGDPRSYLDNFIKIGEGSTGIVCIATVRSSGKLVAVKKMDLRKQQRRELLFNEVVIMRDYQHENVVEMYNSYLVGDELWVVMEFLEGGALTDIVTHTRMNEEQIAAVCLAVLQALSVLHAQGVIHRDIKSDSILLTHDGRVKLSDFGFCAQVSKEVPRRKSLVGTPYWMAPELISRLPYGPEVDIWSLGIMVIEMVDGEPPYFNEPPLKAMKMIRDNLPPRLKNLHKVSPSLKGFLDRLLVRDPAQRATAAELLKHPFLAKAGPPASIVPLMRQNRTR
# MET (cMet), sequence (P08581 25-1390): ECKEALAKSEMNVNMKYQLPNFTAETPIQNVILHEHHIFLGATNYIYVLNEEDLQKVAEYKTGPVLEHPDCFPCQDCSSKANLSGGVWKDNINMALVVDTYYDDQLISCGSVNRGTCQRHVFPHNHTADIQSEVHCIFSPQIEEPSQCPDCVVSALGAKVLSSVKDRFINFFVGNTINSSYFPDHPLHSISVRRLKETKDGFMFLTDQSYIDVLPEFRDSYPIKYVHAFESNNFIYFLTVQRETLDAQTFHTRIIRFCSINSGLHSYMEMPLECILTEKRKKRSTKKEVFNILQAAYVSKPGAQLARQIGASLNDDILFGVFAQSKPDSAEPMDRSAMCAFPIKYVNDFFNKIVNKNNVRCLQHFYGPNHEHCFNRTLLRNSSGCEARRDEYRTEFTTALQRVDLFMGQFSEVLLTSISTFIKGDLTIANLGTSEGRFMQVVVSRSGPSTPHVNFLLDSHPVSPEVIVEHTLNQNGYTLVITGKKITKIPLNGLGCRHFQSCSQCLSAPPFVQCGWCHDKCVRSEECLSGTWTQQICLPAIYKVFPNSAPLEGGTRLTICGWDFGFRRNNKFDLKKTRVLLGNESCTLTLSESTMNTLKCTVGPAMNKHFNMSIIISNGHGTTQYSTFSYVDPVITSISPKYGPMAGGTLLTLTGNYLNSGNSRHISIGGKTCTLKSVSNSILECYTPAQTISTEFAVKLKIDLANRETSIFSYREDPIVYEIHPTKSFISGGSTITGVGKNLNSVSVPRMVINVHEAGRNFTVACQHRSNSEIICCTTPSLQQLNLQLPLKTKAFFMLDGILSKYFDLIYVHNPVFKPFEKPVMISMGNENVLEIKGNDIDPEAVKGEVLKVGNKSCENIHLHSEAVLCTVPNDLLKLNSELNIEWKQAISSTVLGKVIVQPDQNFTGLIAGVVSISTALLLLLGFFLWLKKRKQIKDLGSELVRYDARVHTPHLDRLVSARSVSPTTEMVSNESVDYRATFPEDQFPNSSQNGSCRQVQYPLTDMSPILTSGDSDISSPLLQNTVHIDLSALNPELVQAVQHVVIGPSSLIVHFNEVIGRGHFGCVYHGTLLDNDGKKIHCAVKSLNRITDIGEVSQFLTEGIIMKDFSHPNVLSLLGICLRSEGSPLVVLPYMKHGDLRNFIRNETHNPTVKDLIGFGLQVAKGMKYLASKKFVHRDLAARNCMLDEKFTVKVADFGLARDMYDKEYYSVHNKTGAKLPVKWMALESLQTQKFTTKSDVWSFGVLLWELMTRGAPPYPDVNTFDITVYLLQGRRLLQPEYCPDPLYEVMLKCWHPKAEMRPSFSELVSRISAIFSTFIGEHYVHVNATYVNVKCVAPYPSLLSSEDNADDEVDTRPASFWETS
# MAPK1 (ERK2), sequence (P28482 whole entry): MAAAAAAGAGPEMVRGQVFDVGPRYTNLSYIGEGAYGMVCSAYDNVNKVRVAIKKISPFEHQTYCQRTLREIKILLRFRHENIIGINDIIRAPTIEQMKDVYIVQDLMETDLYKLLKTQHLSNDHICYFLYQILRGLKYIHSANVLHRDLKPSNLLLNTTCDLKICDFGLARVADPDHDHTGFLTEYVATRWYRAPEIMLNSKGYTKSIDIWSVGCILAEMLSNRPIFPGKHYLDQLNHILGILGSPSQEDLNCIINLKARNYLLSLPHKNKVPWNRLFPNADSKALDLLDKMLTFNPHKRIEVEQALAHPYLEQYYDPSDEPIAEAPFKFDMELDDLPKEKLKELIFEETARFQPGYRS
# MAP2K1 (MEK1), sequence (Q02750 whole entry): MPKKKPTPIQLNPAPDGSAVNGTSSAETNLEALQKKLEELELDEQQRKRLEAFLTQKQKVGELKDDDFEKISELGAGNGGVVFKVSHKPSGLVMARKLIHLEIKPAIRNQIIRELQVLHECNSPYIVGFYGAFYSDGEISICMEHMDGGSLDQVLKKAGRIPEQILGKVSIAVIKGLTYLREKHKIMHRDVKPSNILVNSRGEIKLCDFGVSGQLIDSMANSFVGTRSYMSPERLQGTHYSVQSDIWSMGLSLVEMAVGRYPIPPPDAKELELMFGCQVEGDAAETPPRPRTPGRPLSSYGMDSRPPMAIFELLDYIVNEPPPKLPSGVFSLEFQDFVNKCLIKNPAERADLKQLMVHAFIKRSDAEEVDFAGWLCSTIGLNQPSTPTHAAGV
# JAK3, sequence (P52333 whole entry): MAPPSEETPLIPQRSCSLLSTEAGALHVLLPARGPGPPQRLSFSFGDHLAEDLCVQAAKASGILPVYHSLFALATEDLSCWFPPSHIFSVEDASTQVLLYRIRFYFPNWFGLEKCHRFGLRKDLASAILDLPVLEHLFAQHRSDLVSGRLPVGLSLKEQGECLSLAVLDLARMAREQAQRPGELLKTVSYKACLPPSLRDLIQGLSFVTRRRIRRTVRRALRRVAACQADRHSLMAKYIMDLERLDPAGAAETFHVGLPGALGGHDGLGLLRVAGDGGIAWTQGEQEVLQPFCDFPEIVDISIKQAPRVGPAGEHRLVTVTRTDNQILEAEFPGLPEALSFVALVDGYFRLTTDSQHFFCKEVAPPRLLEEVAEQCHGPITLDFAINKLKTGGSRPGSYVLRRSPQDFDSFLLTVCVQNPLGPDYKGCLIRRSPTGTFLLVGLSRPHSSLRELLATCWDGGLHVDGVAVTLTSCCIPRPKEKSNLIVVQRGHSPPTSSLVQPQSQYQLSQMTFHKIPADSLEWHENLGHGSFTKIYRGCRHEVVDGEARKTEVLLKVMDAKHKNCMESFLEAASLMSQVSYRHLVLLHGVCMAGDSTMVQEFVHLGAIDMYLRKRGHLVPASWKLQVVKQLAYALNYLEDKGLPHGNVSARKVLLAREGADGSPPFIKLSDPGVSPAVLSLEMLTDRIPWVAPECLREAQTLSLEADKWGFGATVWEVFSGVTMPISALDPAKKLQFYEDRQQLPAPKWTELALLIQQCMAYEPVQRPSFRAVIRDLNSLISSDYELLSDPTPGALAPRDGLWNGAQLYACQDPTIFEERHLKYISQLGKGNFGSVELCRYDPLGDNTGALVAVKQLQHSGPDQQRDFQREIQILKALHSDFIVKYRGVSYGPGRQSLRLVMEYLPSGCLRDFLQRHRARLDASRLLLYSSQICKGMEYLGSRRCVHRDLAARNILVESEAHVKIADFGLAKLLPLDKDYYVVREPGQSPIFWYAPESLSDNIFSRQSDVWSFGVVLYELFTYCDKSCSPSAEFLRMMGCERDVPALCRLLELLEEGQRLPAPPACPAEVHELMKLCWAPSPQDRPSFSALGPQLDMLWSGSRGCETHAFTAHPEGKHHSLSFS
# BTK, sequence (Q06187 whole entry): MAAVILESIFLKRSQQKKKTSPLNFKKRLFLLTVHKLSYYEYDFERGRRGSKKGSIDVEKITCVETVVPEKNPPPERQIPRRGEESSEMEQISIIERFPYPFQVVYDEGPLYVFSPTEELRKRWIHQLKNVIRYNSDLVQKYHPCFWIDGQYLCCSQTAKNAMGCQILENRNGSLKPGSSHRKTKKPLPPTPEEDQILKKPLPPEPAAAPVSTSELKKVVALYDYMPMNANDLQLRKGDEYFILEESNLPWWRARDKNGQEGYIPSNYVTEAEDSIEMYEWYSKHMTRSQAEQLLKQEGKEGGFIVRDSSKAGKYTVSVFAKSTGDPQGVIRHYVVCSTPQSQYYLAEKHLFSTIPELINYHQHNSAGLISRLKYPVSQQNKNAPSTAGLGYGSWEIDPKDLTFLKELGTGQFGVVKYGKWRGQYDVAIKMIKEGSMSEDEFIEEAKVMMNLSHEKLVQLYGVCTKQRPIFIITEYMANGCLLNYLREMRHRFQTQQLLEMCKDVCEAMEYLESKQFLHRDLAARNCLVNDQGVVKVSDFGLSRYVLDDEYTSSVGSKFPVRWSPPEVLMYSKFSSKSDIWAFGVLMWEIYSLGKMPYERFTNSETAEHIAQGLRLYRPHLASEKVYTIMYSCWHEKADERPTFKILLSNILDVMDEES
# GSK3B (GSK3 beta), sequence (P49841 whole entry): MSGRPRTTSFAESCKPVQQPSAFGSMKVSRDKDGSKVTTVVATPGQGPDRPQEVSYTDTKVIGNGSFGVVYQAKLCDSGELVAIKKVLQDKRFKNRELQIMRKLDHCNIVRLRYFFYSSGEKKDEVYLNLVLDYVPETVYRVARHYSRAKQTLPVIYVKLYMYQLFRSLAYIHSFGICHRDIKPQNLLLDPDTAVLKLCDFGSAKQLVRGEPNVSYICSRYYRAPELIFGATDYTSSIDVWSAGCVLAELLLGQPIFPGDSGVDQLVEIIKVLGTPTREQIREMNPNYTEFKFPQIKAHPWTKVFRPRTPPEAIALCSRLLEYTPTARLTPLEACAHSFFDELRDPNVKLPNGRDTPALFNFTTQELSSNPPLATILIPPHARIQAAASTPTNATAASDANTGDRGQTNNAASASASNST
structure (smiles),measurement,setting,value
"C=CCn1c(=O)c2cnc(Nc3ccc(N4CCN(C)CC4)cc3)nc2n1-c1cccc(N=S(C)(C)=O)n1 [Example 5, 1-(6-{[Dimethyl(oxo)-λ^6-sulfanylidene]amino}pyridine-2-yl)-6-{[4-(4-methylpiperazin-1-yl)phenyl]amino}-2-(prop-2-en-1-yl)-1H,2H,3H-pyrazolo[3,4-d]pyrimidin-3-one]",inhibition of EPHA2,EPHA2,− (inhibition under 50% (tested at 300-350 nM))
same,inhibition of EGFR (ErbB1),EGFR (ErbB1),− (inhibition under 50% (tested at 300-350 nM))
same,inhibition of DYRK3,DYRK3,− (inhibition under 50% (tested at 300-350 nM))
same,inhibition of CSNK1G2 (CK1 gamma 2),CSNK1G2 (CK1 gamma 2),− (inhibition under 50% (tested at 300-350 nM))
same,inhibition of PRKACA (PKA),PRKACA (PKA),− (inhibition under 50% (tested at 300-350 nM))
same,inhibition of RPS6KB1 (p70S6K),RPS6KB1 (p70S6K),− (inhibition under 50% (tested at 300-350 nM))
same,inhibition of PIM1,PIM1,− (inhibition under 50% (tested at 300-350 nM))
same,inhibition of CDK1/cyclin B,CDK1/cyclin B,− (inhibition under 50% (tested at 300-350 nM))
same,inhibition of ROCK1,ROCK1,− (inhibition under 50% (tested at 300-350 nM))
same,inhibition of NTRK1 (TRKA),NTRK1 (TRKA),− (inhibition under 50% (tested at 300-350 nM))
same,inhibition of MARK2,MARK2,− (inhibition under 50% (tested at 300-350 nM))
same,inhibition of MAPK1 (ERK2),MAPK1 (ERK2),− (inhibition under 50% (tested at 300-350 nM))
same,inhibition of JAK3,JAK3,− (inhibition under 50% (tested at 300-350 nM))
same,EC50,A427 cells,29 nM
same,inhibition of BTK,BTK,− (inhibition under 50% (tested at 300-350 nM))
same,inhibition of CHEK1 (CHK1),CHEK1 (CHK1),− (inhibition under 50% (tested at 300-350 nM))
same,inhibition of SYK,SYK,− (inhibition under 50% (tested at 300-350 nM))
same,inhibition of AMPK A1/B1/G1,AMPK A1/B1/G1,− (inhibition under 50% (tested at 300-350 nM))
same,inhibition of RPS6KA3 (RSK2),RPS6KA3 (RSK2),− (inhibition under 50% (tested at 300-350 nM))
same,inhibition of GSK3B (GSK3 beta),GSK3B (GSK3 beta),− (inhibition under 50% (tested at 300-350 nM))
same,inhibition of INSR,INSR,− (inhibition under 50% (tested at 300-350 nM))
same,inhibition of TEK (Tie2),TEK (Tie2),− (inhibition under 50% (tested at 300-350 nM))
same,inhibition of MAPKAPK2,MAPKAPK2,− (inhibition under 50% (tested at 300-350 nM))
same,inhibition of ERBB2 (HER2),ERBB2 (HER2),− (inhibition under 50% (tested at 300-350 nM))
same,inhibition of PAK4,PAK4,− (inhibition under 50% (tested at 300-350 nM))
same,EC50,SK-LU-1 cells,12 nM
same,inhibition of MAP4K4 (HGK),MAP4K4 (HGK),− (inhibition under 50% (tested at 300-350 nM))
same,inhibition of MET (cMet),MET (cMet),− (inhibition under 50% (tested at 300-350 nM))
same,inhibition of PRKCB1 (PKC beta I),PRKCB1 (PKC beta I),− (inhibition under 50% (tested at 300-350 nM))
same,inhibition of MAP2K1 (MEK1),MAP2K1 (MEK1),− (inhibition under 50% (tested at 300-350 nM))
